# Experimental data: PMC5851651, “Population-specific design of de-immunized protein biotherapeutics” (PLoS Computational Biology, 2018)
# Assays:
# DRB1*03:01 = target: T1, DRB1*03:01 (Homo sapiens, UniProt P01903+P01911, A100K/A102G/A103R/A169T/F55Y/I96L/K41T/L162R/M171V/P40S/Q125H/Q178H/Q39Y/R42S/S66N/T106N/T262R/W38E/Y61H); assay: REVEAL HLA-Peptide binding assay (ProImmune); details: score relative to high-affinity control peptide, percentage of the control signal
# T1 construct: purchased ProImmune
# Procedure: (§1) To test the designs, we synthesized twenty overlapping 15-mer peptides containing the introduced mutations and their wild-type counterparts. The peptides maximally covered the predicted epitopes around the mutations of all designed constructs that contained one and two mutations (Supplementary S2 Table). The affinity of these peptides to the three HLA alleles was measured at time zero and after 24 hours (Methods, Supplementary S3 and S4 Tables). We linearly combined the measured relative affinity scores across HLA alleles weighted by their allele frequencies for each peptide respectively to produce a score that approximates the overall immunogenicity (Fig 5A). Results are presented for measurements taken at time point zero. […] Overall, the measured and predicted immunogenicity of the tested peptides correlated well with r = 0.76 (CI95 = [0.48, 0.91], t = 4.885, df = 17, p-value = 1.4e-4; Fig 5A). Next, we compared the predicted and measured gain or loss in immunogenicity for the whole region by reconstructing the targeted region using overlapping peptides. The measured relative scores were linearly combined (as previously) and then normalized to the number of overlapping peptides used in the reconstruction (Fig 5B). The difference in the measured scores between the wild type and mutant regions can be thought of as a proxy for gain or loss in immunogenicity and correlated well to the predicted changes (r = 0.86, CI95 = [0.40, 0.97], t = 4.136, df = 6, p-value = 6.1e-3; Fig 5B).
# (§2) In order to experimentally verify our in silico predictions for Factor VIII, we utilized the commercial REVEAL HLA-Peptide binding assay of ProImmune (www.proimmune.com). Peptides were synthesized using the PEPscreen custom library synthesis method, yielding high purity peptides for experimental analysis. HLA-peptide binding was assessed for the three HLA-DRB1 alleles used in this study (DRB1*15:01, DRB1*03:01 and DRB1*07:01). In short, the method compares the affinity of the studied peptide to the affinity of a high-affinity control peptide. Each peptide is then scored for binding to a certain HLA molecule relative to the score of the control peptide and reported as the percentage of the signal generated by the control peptide.
# DRB1*07:01 = DRB1*07:01 (Homo sapiens, UniProt P01903+P01911, A100R/A102G/A103Q/D57E/D86V/E43K/F76Y/K127E/L162R/M171V/P40G/Q125H/Q99D/R33Q/R42Y/R54Q/S133A/S66F/T210M/V115G/Y107V/Y59L/Y89S); assay: REVEAL HLA-Peptide binding assay (ProImmune); details: score relative to high-affinity control peptide, percentage of the control signal
# Procedure: as §1, §2
# DRB1*15:01 = target: T2, DRB1*15:01 (Homo sapiens, UniProt P01903+P01911); assay: REVEAL HLA-Peptide binding assay (ProImmune); details: score relative to high-affinity control peptide, percentage of the control signal
# T2 construct: purchased ProImmune
# Procedure: as §1, §2
# [1] = test system: DRB1*15:01, DRB1*03:01 and DRB1*07:01; assay: Experimental immunogenicity score: relative HLA binding combined across alleles, weighted by allele frequency; parameters: species or system human; key: allele-frequency-weighted sum of binding, % of control peptide signal; details: for Difference to WT (Experimental Score): per peptide against wild-type counterpart; for Experimental Score: per peptide, weights DRB1*15:01 0.162, DRB1*07:01 0.146, DRB1*03:01 0.143
# Procedure: as §1
# Fig 5 (A) Correlation of experimental and predicted immunogenicity of each peptide. The experimental immunogenicity score of a peptide is defined as the linear combination of the individual experimentally determined relative HLA binding affinity of each HLA allele h ∈ H weighted by the HLA allele frequency. (B) Correlation of experimental and predicted immunogenicity of the whole redesigned region. The summarized immunogenicity score of the whole region is the linear combination of the overlapping peptides used to reconstruct the region, normalized by total number of peptides used. The predicted immunogenicity scores per peptide were computed according to our immunogenicity objective function. The red lines are a fitted linear regression and the red tubes represent their 95-confidence interval.
# as §2
# [2] = time 0 (H0), listed as LTRHLRIHPQSWEHQ
# [3] = time 0 (H0), listed as LRIHPQSWEHQIALRM
# [4] = time 0 (H0), listed as LTRYLRIHPQSWVHQ
# [5] = time 0 (H0), listed as VNSLDPPLTTRYLRI
# [6] = time 0 (H0), listed as VNSLDPPLYTRYLRI
# [7] = time 0 (H0), listed as LTRLLRIHPQSWEHQ
# [8] = time 0 (H0), listed as FTRYLRIHPQSWVHH
# [9] = time 0 (H0), listed as FTRYLRIHPQSWEHQ
# [10] = time 0 (H0), listed as TTRYLRIHPQSWEHQ
# [11] = time 0 (H0), listed as VNSLDPPLLTRYLRI
DRB1*03:01 (DRB1*03:01; after 24 hours (H24)) [%],DRB1*03:01 (DRB1*03:01; time 0 (H0)) [%],DRB1*07:01 (DRB1*07:01; after 24 hours (H24)) [%],DRB1*07:01 (DRB1*07:01; time 0 (H0)) [%],DRB1*15:01 (DRB1*15:01; after 24 hours (H24)) [%],DRB1*15:01 (DRB1*15:01; time 0 (H0)) [%],Sequence,Difference to WT (Experimental Score) ([1]; after 24 hours (H24)),Experimental Score ([1]; after 24 hours (H24)),Difference to WT (Experimental Score) ([1]; time 0 (H0)),Experimental Score ([1]; time 0 (H0)),other results
0.000,0.000,0.100,2.480,2.000,13.999,"LTRHLRIHPQSWEHQ [Design M-8, peptide covering Y2324H, V2333E]",-13.048,0.339,-15.092,2.630,DRB1*03:01 (DRB1*03:01; [2]): 2.5%; DRB1*07:01 (DRB1*07:01; [2]): 14.0%; DRB1*15:01 (DRB1*15:01; [2]): 0.0%
0.000,0.157,19.800,32.020,11.600,44.319,"LRIHPQSWEHQIALRM [Design M-6, peptide covering V2333E]",-3.607,4.770,-4.693,11.877,DRB1*03:01 (DRB1*03:01; [3]): 0.2%; DRB1*07:01 (DRB1*07:01; [3]): 32%; DRB1*15:01 (DRB1*15:01; [3]): 44.3%
0.243,0.243,74.002,87.324,15.728,30.478,"LTRYLRIHPQSWVHQ [WT-3, wild-type peptide of Factor VIII C2 domain, reference compound]",,13.387,,17.722,DRB1*03:01 (DRB1*03:01; [4]): 0.2%; DRB1*07:01 (DRB1*07:01; [4]): 87.3%; DRB1*15:01 (DRB1*15:01; [4]): 30.5%
0.000,0.100,0.000,0.100,0.000,0.000,"VNSLDPPLTTRYLRI [Design M-2, peptide covering L2321T]",-0.054,0.000,-1.367,0.029,DRB1*03:01 (DRB1*03:01; [5]): 0.1%; DRB1*07:01 (DRB1*07:01; [5]): 0.1%; DRB1*15:01 (DRB1*15:01; [5]): 0%
0.000,0.000,0.900,3.600,0.000,0.000,"VNSLDPPLYTRYLRI [Design M-3, peptide covering L2321Y]",0.077,0.131,-0.871,0.526,DRB1*03:01 (DRB1*03:01; [6]): 0%; DRB1*07:01 (DRB1*07:01; [6]): 3.6%; DRB1*15:01 (DRB1*15:01; [6]): 0%
0.000,0.026,20.100,33.528,0.100,5.445,"LTRLLRIHPQSWEHQ [Design M-7, peptide covering Y2324L, V2333E]",-10.436,2.951,-11.941,5.781,DRB1*03:01 (DRB1*03:01; [7]): 0%; DRB1*07:01 (DRB1*07:01; [7]): 33.5%; DRB1*15:01 (DRB1*15:01; [7]): 5.4%
0.000,1.449,29.800,39.809,7.500,16.564,"FTRYLRIHPQSWVHH [Design M-13, peptide covering L2321F, Q2335H]",-7.821,5.566,-9.019,8.703,DRB1*03:01 (DRB1*03:01; [8]): 1.4%; DRB1*07:01 (DRB1*07:01; [8]): 39.8%; DRB1*15:01 (DRB1*15:01; [8]): 16.6%
0.000,0.005,53.300,75.329,0.000,9.756,"RIHPQSWVHHIALRM [Design M-4, peptide covering Q2335H]",2.595,7.782,5.857,12.579,
0.000,1.668,17.900,28.951,0.300,5.434,"LTRYLKIHPQSWEHQ [Design M-9, peptide covering R2326K, V2333E]",-10.725,2.662,-12.376,5.346,
0.000,0.020,27.400,43.779,0.300,2.906,"FTRYLRIHPQSWEHQ [Design M-10, peptide covering L2321F, V2333E]",-9.338,4.049,-10.856,6.865,DRB1*03:01 (DRB1*03:01; [9]): 0%; DRB1*07:01 (DRB1*07:01; [9]): 43.8%; DRB1*15:01 (DRB1*15:01; [9]): 2.9%
0.000,0.544,49.600,71.612,1.600,6.575,"TTRYLRIHPQSWEHQ [Design M-11, peptide covering L2321T, V2333E]",-5.886,7.501,-6.123,11.598,DRB1*03:01 (DRB1*03:01; [10]): 0.5%; DRB1*07:01 (DRB1*07:01; [10]): 71.6%; DRB1*15:01 (DRB1*15:01; [10]): 6.6%
0.000,0.697,0.370,0.810,0.000,7.274,"VNSLDPPLLTRYLRI [WT-1, wild-type peptide of Factor VIII C2 domain, reference compound]",,0.054,,1.396,DRB1*03:01 (DRB1*03:01; [11]): 0.7%; DRB1*07:01 (DRB1*07:01; [11]): 0.8%; DRB1*15:01 (DRB1*15:01; [11]): 7.3%
0.000,0.032,21.500,42.841,5.300,18.099,"LRLHPQSWEHQIALRM [Design M-15, peptide covering I2327L, V2333E]",-4.380,3.998,-7.378,9.191,
